The values that follow come from article PMC467089, “Click estradiol dimers with novel aromatic bridging units: synthesis and anticancer evaluation” (Journal of Enzyme Inhibition and Medicinal Chemistry, 2024).

For data set [1], the target named is T1, porcine brain tubulin (Sus scrofa, UniProt P02550+P02554).
T1 construct: purchased Cytoskeleton, Denver, CO; host or cells: porcine brain (tissue-purified)
Nature of the data set: Tubulin polymerisation assay. In kind it is biochemical. The following applies: 10 μmol/L, Vmax relative to DMSO. How it is done:
Tubulin polymerisation assay kit (Cytoskeleton, Denver, CO) was used according to the manufacturer’s instructions. Polymerisation of porcine brain tubulin (>99% purity) was measured using an EnVision Multilabel Plate Reader (PerkinElmer, Waltham, MA) at 37 °C, in the presence of either 10 μmol/L test compounds or DMSO. Maximum polymerisation velocity (Vmax) was calculated from the polymerisation curves. Data visualisation was performed in OriginPro 2018b (b9.5.5.409) software (OriginLab Corporation, Northampton, MA)[10].

Data set [2] relates to CEM-DNR (daunorubicin resistant variant of CCRF-CEM). Briefly: MTS cytotoxicity assay, CEM-DNR. The class given is cell-based, human. The following applies: Homo sapiens, CEM-DNR; MTS assay, 72-h incubation, mean ± SD of 3 independent experiments; read-out: IC50 cytotoxic activity CEM-DNR. How it is done:
(§1) The p53 deficient variant, HCT116p53−/−, was purchased from Horizon Discovery (Cambridge, UK). The daunorubicin-resistant CCRF-CEM cell line CEM-DNR bulk and paclitaxel-resistant K562-TAX sublines were developed in-house by exposing parental cell lines to escalating concentrations of daunorubicin and paclitaxel, respectively. Cells were maintained in the recommended culture medium (Sigma-Aldrich, St. Louis, MO) supplemented with 10% foetal calf serum, 100 U/mL penicillin, and 100 μg/mL streptomycin. The HUVEC line was obtained from PromoCell (Heidelberg, Germany). The cells were cultured in endothelial cell growth medium with SupplementMix for endothelial cells (PromoCell, Heidelberg, Germany). The incubation conditions were a humidified atmosphere of 95% air and 5% CO2 at 37 °C[10]. Cells were seeded in 384-well plates and after overnight incubation treated with compounds. All tested compounds were dissolved in 100% DMSO, and fourfold serial dilutions were performed using an Echo550 liquid handler (Labcyte, San Jose, CA). The experiments were performed in technical duplicates and three biological replicates. Cells were incubated with compounds for 72 h and thereafter 5 μL of MTS reagent was added to each well.
For orientation: Tetrazolium dyes change colour on reduction, which living cells bring about.

The subject of data set [3] is K562 (chronic myelogenous leukaemia). Nature of the data set: MTS cytotoxicity assay, K562. In kind it is cell-based. The following applies: Homo sapiens, K562; MTS assay, 72-h incubation, mean ± SD of 3 independent experiments; read-out: IC50 cytotoxic activity K562. How it is done:
as §1

Data set [4] concerns K562-TAX (paclitaxel-resistant variant of K562). Briefly: MTS cytotoxicity assay, K562-TAX. The class given is cell-based, human. The following applies: Homo sapiens, K562-Tax; MTS assay, 72-h incubation, mean ± SD of 3 independent experiments; read-out: IC50 cytotoxic activity K562-TAX. How it is done:
as §1

For data set [5], the system named is A549 (lung adenocarcinoma). Briefly: MTS cytotoxicity assay, A549. The class given is cell-based, human. Conditions: Homo sapiens, A549; MTS assay, 72-h incubation, mean ± SD of 3 independent experiments; read-out: IC50 cytotoxic activity A549. How it is done: as §1
Data set [6] has as its system HCT116 (colorectal adenocarcinoma). Briefly: MTS cytotoxicity assay, HCT116. The class given is cell-based. Conditions: Homo sapiens, HCT-116; MTS assay, 72-h incubation, mean ± SD of 3 independent experiments; read-out: IC50 cytotoxic activity HCT116. How it is done:
as §1

Data set [7] deals with HCT116p53−/− (p53 gene null variant of HCT116). Nature of the data set: MTS cytotoxicity assay, HCT116p53−/−. The following applies: Homo sapiens, HCT-116; MTS assay, 72-h incubation, mean ± SD of 3 independent experiments; read-out: IC50 cytotoxic activity HCT116p53-. The class given is cell-based. How it is done:
as §1

Data set [8] concerns U2OS (osteosarcoma). Nature of the data set: MTS cytotoxicity assay, U2OS. In kind it is cell-based, human. Conditions: Homo sapiens, U2OS; MTS assay, 72-h incubation, mean ± SD of 3 independent experiments; read-out: IC50 cytotoxic activity U2OS. How it is done:
as §1

Data set [9] is described as follows: MTS cytotoxicity assay, MRC-5. The class given is cell-based. The following applies: human, MRC-5 cells (non-tumour fibroblasts); MTS assay, 72-h incubation, mean ± SD of 3 independent experiments; read-out: IC50 cytotoxic activity MRC-5. How it is done:
as §1

Data set [10] in a line: MTS cytotoxicity assay, BJ. In kind it is cell-based. The following applies: human, BJ cells (non-tumour skin fibroblasts); MTS assay, 72-h incubation, mean ± SD of 3 independent experiments; read-out: IC50 cytotoxic activity BJ. How it is done: as §1
The subject of data set [11] is CCRF-CEM (childhood T-cell acute lymphoblastic leukaemia). Briefly: MTS cytotoxicity assay, CCRF-CEM. In kind it is cell-based. Conditions: Homo sapiens, MTS assay, 72-h incubation, mean ± SD of 3 independent experiments, read-out: IC50 cytotoxic activity CCRF-CEM. How it is done: as §1
A short description of data set [12]: MTS cytotoxicity assay, HUVEC. The class given is cell-based. Conditions: human, HUVEC cells (umbilical vein endothelial cells); MTS assay, 72-h incubation, mean ± SD of 3 independent experiments; read-out: IC50 cytotoxic activity HUVEC. How it is done: as §1
For data set [13], the system named is CCRF-CEM lymphoblasts. Briefly: Cell cycle analysis by flow cytometry (propidium iodide). In kind it is cell-based, human. How it is done:
(§2) To further characterise the mode of action of studied compounds, we analysed the cell cycle profile of CCRF-CEM cells treated with compounds for 24 h. […] The compounds ED1–ED9 and ED12 induced arrest in G2/M phase of the cell cycle (Figure 2(A)). To differentiate between G2 block and mitotic arrest, we used phospho-histone H3 (Ser10) mitotic marker (Figure 2(B)). […] Generally, dimers induced a dose-dependent increase of sub G1 cell population with fragmented DNA except for ED2 and ED4 (Figure 2(C)). […] To assess the proliferation of treated cells, they were subjected to 5-bromo-2-deoxyuridine (BrDU) labelling. […] Analogously, changes in 5-bromouridine (BrU) incorporation were examined to monitor overall RNA synthesis.
(§3) Treated CCRF-CEM cells were harvested, washed with ice-cold phosphate-buffered saline (PBS), fixed in cold 70% ethanol and stored at −20 °C. Prior to analysis, fixed cells were permeabilised with 0.25% Triton X-100 in PBS for 15 min, blocked in 1% bovine serum, and incubated with anti-phospho-Histone H3 (Ser^10) antibody (Merck Millipore, Burlington, MA). Subsequently, the cells were treated with 50 μg/mL RNAse, stained with propidium iodide and analysed by FACSCalibur (Becton Dickinson, Franklin Lakes, NJ) flow cytometer at 488 nm. Cell cycle distribution (G1, S, and G2/M) was analysed using ModFitLT software (Verity, Topsham, ME), and reflects only viable population prior to the fixing procedure. Particles with lower propidium iodide content than G1 phase cells were classified as non-viable cells with fragmented DNA. Flow cytometry data visualisation was performed using OriginPro 2018b (b9.5.5.409) software (OriginLab Corporation, Northampton, MA)[10].
(Flow cytometry measures light scatter and fluorescence of single cells or particles in a stream.)

Data set [14] concerns CCRF-CEM lymphoblasts. Nature of the data set: Phospho-histone H3 (Ser10) mitotic marker, flow cytometry. In kind it is cell-based, human. How it is done: as §2, §3
The test system of data set [15] is CCRF-CEM lymphoblasts. Briefly: BrDU incorporation analysis (DNA synthesis). The class given is cell-based, human. How it is done: as §2
Thirty minutes before harvesting, cells were pulse-labelled with 10 μM BrDU. After overnight fixation in ice-cold 70% ethanol, cells were resuspended in 2 M HCl for 30 min at room temperature (RT), then washed with 0.1 M Na2B4O7 and blocked with PBS containing 0.5% Tween-20 and 1% BSA. BrDU incorporation was analysed using anti-BrdU antibody clone MoBu-1 (Exbio, Vestec, Czech Republic) and a secondary anti-mouse-FITC antibody (Sigma-Aldrich, St. Louis, MO). Cells were washed with PBS and stained with 0.1 mg/mL propidium iodide and 0.5 mg/mL RNase A for 1 h at RT and analysed by flow cytometry using a 488 nm single beam laser (FACSCalibur, Becton Dickinson, Franklin Lakes, NJ). The percentage of cells with incorporated BrDU was analysed using CellQuest software.

For data set [16], the system named is CCRF-CEM lymphoblasts. Briefly: BrU incorporation analysis (RNA synthesis). In kind it is cell-based, human. How it is done: as §2
Prior to the trypsinisation, cells were treated with 1 mM BrU for 30 min. Subsequently, the cells were fixed in 1% paraformaldehyde with 0.05% of NP-40 for 15 min at RT and stored overnight at 4 °C. Fixed cells were washed with 1% glycine in PBS and stained with primary anti-BrdU antibody clone MoBu-1 crossreacting with BrU (Exbio, Vestec, Czech Republic) for 30 min at RT, washed with PBS and labelled with secondary anti-mouse-FITC antibody (Sigma-Aldrich, St. Louis, MO). Following 1-h incubation in 1% paraformaldehyde containing 0.05% NP-40, cells were stained with propidium iodide (0.1 mg/mL) and treated with RNase A (0.5 mg/mL) for 1 h at RT. The percentage of BrU positive cells was quantified using CellQuest software.

T1 sequence (P02550 whole entry): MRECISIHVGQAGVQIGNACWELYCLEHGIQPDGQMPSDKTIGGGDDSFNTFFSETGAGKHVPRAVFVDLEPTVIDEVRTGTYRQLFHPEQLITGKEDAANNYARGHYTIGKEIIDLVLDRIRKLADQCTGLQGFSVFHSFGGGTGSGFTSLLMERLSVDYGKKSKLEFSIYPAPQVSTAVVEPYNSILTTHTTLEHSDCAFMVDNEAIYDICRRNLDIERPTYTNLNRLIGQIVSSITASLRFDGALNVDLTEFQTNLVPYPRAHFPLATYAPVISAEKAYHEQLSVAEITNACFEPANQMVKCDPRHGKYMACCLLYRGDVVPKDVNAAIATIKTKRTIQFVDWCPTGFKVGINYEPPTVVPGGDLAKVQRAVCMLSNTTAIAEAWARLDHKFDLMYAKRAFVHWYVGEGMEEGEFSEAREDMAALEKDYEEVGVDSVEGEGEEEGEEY
T1 sequence (P02554 whole entry): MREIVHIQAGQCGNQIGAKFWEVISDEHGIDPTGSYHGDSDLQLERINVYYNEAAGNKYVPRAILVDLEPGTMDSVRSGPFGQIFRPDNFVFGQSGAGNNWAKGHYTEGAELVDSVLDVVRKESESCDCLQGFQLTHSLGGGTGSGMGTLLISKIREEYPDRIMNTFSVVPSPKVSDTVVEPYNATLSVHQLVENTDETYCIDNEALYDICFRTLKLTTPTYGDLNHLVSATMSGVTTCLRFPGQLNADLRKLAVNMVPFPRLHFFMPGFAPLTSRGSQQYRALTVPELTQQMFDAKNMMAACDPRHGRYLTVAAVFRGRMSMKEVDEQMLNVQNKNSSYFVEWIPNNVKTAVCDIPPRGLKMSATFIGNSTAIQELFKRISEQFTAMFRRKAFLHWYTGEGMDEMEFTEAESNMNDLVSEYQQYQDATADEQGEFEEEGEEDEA

For the compound `Cc1cc(C)c(Cn2cc([C@]3(O)CC[C@H]4[C@@H]5CCc6cc(O)ccc6[C@H]5CC[C@@]43C)nn2)c(C)c1Cn1cc([C@]2(O)CC[C@H]3[C@@H]4CCc5cc(O)ccc5[C@H]4CC[C@@]32C)nn1` [ED10, 17,17′-[(2,4,6-Trimethyl-1,3-phenylene)bis(methylene-1H-1,2,3-triazole-1,4-diyl)]di[estra-1,3,5(10)-triene-3,17β-diol]], the “inhibitory activity against tubulin polymerisation (in words)” value in data set [1] was “inactive”.

As to `C[C@]12CC[C@@H]3c4ccc(O)cc4CC[C@H]3[C@@H]1CC[C@@]2(O)c1cn(Cc2c(Cl)c(Cl)c(Cl)c(Cn3cc([C@]4(O)CC[C@H]5[C@@H]6CCc7cc(O)ccc7[C@H]6CC[C@@]54C)nn3)c2Cl)nn1` [ED11, 17,17′-[(2,4,5,6-Tetrachloro-1,3-phenylene)bis(methylene-1H-1,2,3-triazole-1,4-diyl)]di[estra-1,3,5(10)-triene-3,17β-diol]], in data set [1], the “inhibitory activity against tubulin polymerisation (in words)” value is “inactive”.

`C#C[C@]1(O)CC[C@H]2[C@@H]3CCc4cc(O)ccc4[C@H]3CC[C@@]21C` [EE, 17α-ethinylestradiol, reference compound]: the concentration for half-maximal inhibition (IC50) was determined as 23 ± 4.7 µM in data set [2]; 8.72 ± 2.17 µM in [3]; 15.6 ± 6.25 µM in data set [4]; 31.5 ± 4.16 µM in data set [5]; 30 ± 6.89 µM in [6]; 33.6 ± 11.9 µM in [7]. Further, the IC50 in data set [8] is 22.4 ± 5.65 µM. Also, the IC50 at 72 h in data set [9] and in data set [10] was above 50 µM each time.

As for `COc1cc2c(cc1O)CC[C@@H]1[C@@H]2CC[C@]2(C)[C@@H](O)CC[C@@H]12` [ME, 2-methoxyestradiol, reference compound], the IC50 in [11] came out at 1.61 ± 0.097 µM; in data set [2], 1.61 ± 0.2 µM; in data set [3], 1.43 ± 0.39 µM; in data set [4], 1.32 ± 0.2 µM; in [5] it was 2.26 ± 0.15 µM; in data set [6] it was 1.58 ± 0.25 µM. Further, the IC50 in data set [7] came to 1.99 ± 0.41 µM; in data set [8] it was 2.13 ± 0.3 µM. For the same compound, the IC50 at 72 h in [9] was above 50 µM; in data set [10], above 50 µM; in data set [12], 1.07 ± 0.18 µM. Also, the “<G1 (sub-G1, fragmented DNA), % of positive cells” value in data set [13] (1×IC50, 24 h) is on record as 23.97%; in data set [13] (5×IC50, 24 h), 65.32%. Further, the “>G2/M (polyploidy), % of positive cells” value turned out to be 6.2% in [13] (1×IC50, 24 h) and 10.4% in data set [13] (5×IC50, 24 h). Moreover, the “G0/G1, % of positive cells” value turned out to be 31.50% in data set [13] (1×IC50, 24 h) and 1.19% in data set [13] (5×IC50, 24 h). Further, the “G2/M, % of positive cells” value in data set [13] (1×IC50, 24 h) is reported as 28.85%; in [13] (5×IC50, 24 h), 84.03%. The “S, % of positive cells” value in data set [13] (1×IC50, 24 h) amounted to 39.65%; in [13] (5×IC50, 24 h), 14.77%. For the same compound, the “pH3Ser10, % of positive cells” value in [14] (1×IC50, 24 h) is recorded as 17.74%; in [14] (5×IC50, 24 h) it was 67.40%. The “BrDU, % of positive cells” value in data set [15] (1×IC50, 24 h) worked out at 9.31%; in [15] (5×IC50, 24 h), 9.49%. The “BrU, % of positive cells” value in [16] (1×IC50, 24 h) was 23.60%; in data set [16] (5×IC50, 24 h), 46.10%.

The IC50 is the concentration that gives 50% inhibition.
